According to patent US4855316A (priority 1988, dated 1989):
pKi: −log10 of the molar value.

Key:
mu opioid receptor = target: T1, mu opioid receptor (Cavia porcellus, UniProt A0ACM8Q262); assay: mu opioid receptor binding: tritiated DAGO in guinea pig brain homogenates; details: read-out: Opoid Binding Mu Ki; guinea pig brain homogenate, [3H]DAGO, 150 minutes, 0° C.
T1 construct: full-length wild-type receptor

[1] = standard rat paw pressure analgesia test; assay type: in vivo; details: i.v.
Excerpt: The ED50 doses for several representative compounds of this invention in the standard rat paw pressure analgesia test are presented in Table 1.

T1 sequence (A0ACM8Q262 1-400): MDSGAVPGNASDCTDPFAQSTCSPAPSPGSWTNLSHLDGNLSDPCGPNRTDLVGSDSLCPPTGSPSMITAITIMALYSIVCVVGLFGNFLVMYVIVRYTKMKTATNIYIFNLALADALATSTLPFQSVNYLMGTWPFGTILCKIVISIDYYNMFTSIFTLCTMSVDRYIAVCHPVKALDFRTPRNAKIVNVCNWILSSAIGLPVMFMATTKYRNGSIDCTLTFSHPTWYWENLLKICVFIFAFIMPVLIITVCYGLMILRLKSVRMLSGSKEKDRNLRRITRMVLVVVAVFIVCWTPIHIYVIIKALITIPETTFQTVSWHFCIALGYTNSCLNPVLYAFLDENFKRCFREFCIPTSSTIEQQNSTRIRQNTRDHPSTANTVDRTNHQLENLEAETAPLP

| SMILES | pKi (mu opioid receptor) | Rat Paw Pressure MPE50 [1] [mg·kg] |
| --- | --- | --- |
| CO[C@H]1C[C@@H](N2CCCC2)[C@H](N(C)C(=O)COc2cccc(F)c2)C[C@H]1OC (relative stereo) [Compound 9, N-[4,5-Dimethoxy-2-(1-pyrrolidinyl)cyclohexyl]-2-(3-fluorophenoxy)-N-methylacetamide] | 5.96 | – |
| CO[C@H]1C[C@@H](N2CCCC2)[C@H](N(C)C(=O)Cc2cccc3ccccc23)C[C@H]1OC (relative stereo) [Compound 5] | – | 1.7 |
| CO[C@H]1C[C@@H](N2CCCC2)[C@H](N(C)C(=O)CC2c3ccccc3-c3ccccc32)C[C@H]1OC (relative stereo) [Compound 7] | 6.56 | – |
| CO[C@H]1C[C@@H](N2CCCC2)[C@H](N(C)C(=O)COc2cc(C)c(Cl)c(C)c2)C[C@H]1OC (relative stereo) [Compound 3] | 6.14 | > 10 |
| CO[C@H]1C[C@@H](N2CCCC2)[C@H](N(C)C(=O)COc2cc(C)c(Cl)c(C)c2Cl)C[C@H]1OC (relative stereo) [Compound 8] | 6.15 | – |
| CO[C@H]1C[C@@H](N2CCCC2)[C@H](N(C)C(=O)COc2ccc(Cl)c(Cl)c2)C[C@H]1OC (relative stereo) [Compound 4] | 5.96 | > 10 |
| CO[C@H]1C[C@@H](N2CCCC2)[C@H](N(C)C(=O)Cc2ccc(Cl)c(Cl)c2)C[C@H]1OC (relative stereo) [Compound 6] | – | 5.2 |
